Experimental data reported in the Biogen ADME set (Fang et al. 2023).
Values after ≈ are worked out from the molar mass of the structure shown.

Details: for aqueous solubility: pH 6.8

| Compound | MDR1-MDCK efflux ratio | intrinsic clearance, human liver microsomes | intrinsic clearance, rat liver microsomes | aqueous solubility | fraction unbound, human plasma | fraction unbound, rat plasma |
| --- | --- | --- | --- | --- | --- | --- |
| OC[C@@H](c1ccccc1)n1cc(CCc2ccccc2)nn1 | 0.889 | 24.7 mL/min/kg | 694 mL/min/kg | 14 µg/mL (≈ 47.9 µM) |  |  |
| CCN1CCOC(C(=O)N2CCC(c3cn[nH]c3)CC2)C1 (stereo unspecified) | 3.51 | ≤ 4.74 mL/min/kg |  |  |  |  |
| N=C(NC(=O)OCc1ccccc1)c1ccc(CN)cc1 |  |  |  | 30.6 µg/mL (≈ 108 µM) |  |  |
| c1ccc(-n2ncc3c(-n4ccnc4)ncnc32)cc1 | 0.618 | 16 mL/min/kg | 376 mL/min/kg | 4.97 µg/mL (≈ 18.9 µM) |  |  |
| Cc1c(F)cccc1NC(=O)CN1[C@H](Cc2ccccc2)C[C@]2(C)NC(=O)CCC[C@H]12 | 12.4 | 267 mL/min/kg | 1090 mL/min/kg |  | 0.0394 | 0.0842 |
| O=C(Nc1ccn(Cc2ccccn2)n1)c1c(F)cccc1I | 2.85 | ≤ 4.74 mL/min/kg | 132 mL/min/kg | 61.2 µg/mL (≈ 145 µM) |  |  |
| Cc1noc(Cc2ccc(C)c(O)c2)n1 |  | 10.7 mL/min/kg | 52.2 mL/min/kg |  |  |  |
| Cc1ncc(CCN2C(=O)NC3(CCCC3)C2=O)s1 | 91 | ≤ 4.74 mL/min/kg | 63.6 mL/min/kg |  |  |  |
| CC(C)NCC(O)COc1cccc2ccccc12 (stereo unspecified) |  |  |  |  |  | 0.223 |
| O=c1sn(-c2cccc3ccccc23)c(=O)n1Cc1ccccc1 |  |  |  | 0.4 µg/mL (≈ 1.2 µM) |  |  |
| CC(C)(C)c1noc(COc2ccccc2C#N)n1 |  |  |  | 40.8 µg/mL (≈ 159 µM) |  |  |
| C#C[C@@](C)(CC)NC(=O)c1cc(F)cnc1NC1CC(F)(F)C1 | 0.802 | 69.6 mL/min/kg | 313 mL/min/kg |  | 0.0469 | 0.0708 |
| CCN(CC)C(=O)N1CCC(C(=O)O)CC1 | 4.41 | ≤ 4.74 mL/min/kg | ≤ 10.7 mL/min/kg | 60.2 µg/mL (≈ 264 µM) |  |  |
| O=C(Nc1ccc(N2CCOCC2)nc1)N1CCc2sccc2C1 | 1.91 | 8.76 mL/min/kg | 109 mL/min/kg | 25.8 µg/mL (≈ 74.8 µM) |  |  |
| Cc1cccc(NC2CCN(Cc3ccncc3)CC2)n1 | 0.496 | 18.6 mL/min/kg | 238 mL/min/kg | 37.6 µg/mL (≈ 133 µM) |  |  |
| CC(C)Oc1ccc(C#N)cc1NC1CCN(C)CC1 | 2.51 | ≤ 4.74 mL/min/kg | 100 mL/min/kg |  |  |  |
| COC(=O)CCCNC(=O)CN1CCC(C(=O)c2ccc(C)cc2C)CC1 | 3.29 | 645 mL/min/kg | 1910 mL/min/kg |  |  |  |
| CN1CCc2nc(NC(=O)c3ccc(Cl)s3)sc2C1 | 0.586 | 20 mL/min/kg | 477 mL/min/kg | 48.8 µg/mL (≈ 155 µM) |  |  |
| Cc1cc(CO)nc(N2CCCCC2)n1 |  | 26.7 mL/min/kg | 113 mL/min/kg |  |  |  |
| CC(C)CCN1CCC(CNC(=O)C2CC=CC2)CC1 | 3.77 | 12.5 mL/min/kg | 141 mL/min/kg |  |  |  |
| COc1ccc(CCCNc2nnc(C)o2)cc1 |  | ≤ 4.74 mL/min/kg | 151 mL/min/kg | 25.4 µg/mL (≈ 103 µM) |  |  |

| Compound | MDR1-MDCK efflux ratio | intrinsic clearance, human liver microsomes | intrinsic clearance, rat liver microsomes | aqueous solubility | fraction unbound, human plasma | fraction unbound, rat plasma |
| --- | --- | --- | --- | --- | --- | --- |
| COc1cc2c(cc1OC)-c1[nH]nc(NCc3c(Cl)cccc3Cl)c1C2=O | 3.05 |  |  | 0.29 µg/mL (≈ 0.717 µM) |  |  |
| N#Cc1ccc(OC2CCNCC2)cc1 |  | ≤ 4.74 mL/min/kg | ≤ 10.7 mL/min/kg |  |  |  |
| O=C(CC1c2ccccc2CCc2ccccc21)NCCN1CCOCC1 | 10.6 | 131 mL/min/kg | 2020 mL/min/kg |  |  |  |
| Cc1cnc(-n2cnnc2)c(-c2cccc(Cl)c2Cl)c1 | 2.25 | 6.9 mL/min/kg | 165 mL/min/kg | 18.6 µg/mL (≈ 61 µM) |  |  |
| Cc1csc(NC(=O)CCc2ccncc2)n1 | 0.876 | ≤ 4.74 mL/min/kg | 45.3 mL/min/kg | 38.1 µg/mL (≈ 154 µM) |  |  |
| c1ccc2[nH]c(C3CCNCC3)nc2c1 |  |  |  | 56.3 µg/mL (≈ 280 µM) |  |  |
| COc1cc(NC(=O)c2ccc(F)cc2C)ncn1 | 0.558 | 8.37 mL/min/kg | 49.1 mL/min/kg | 15.8 µg/mL (≈ 60.3 µM) |  |  |
| Cc1cccc(NC(=O)c2cccnc2N2CCCCC2)n1 | 0.697 | 120 mL/min/kg | 1670 mL/min/kg | 27.6 µg/mL (≈ 93.1 µM) |  |  |
| COc1ccc(C(=O)Nc2cc(-c3ccc(F)c(F)c3)no2)cc1 | 0.43 |  |  | 0.35 µg/mL (≈ 1.06 µM) |  |  |
| O=C(NCCN1CCc2ccccc2C1=O)c1ccon1 | 1.18 | ≤ 4.74 mL/min/kg | 56.3 mL/min/kg |  |  |  |
| CSCc1c(C(=O)NC(C)C)oc2ccccc12 | 0.636 | 85.1 mL/min/kg | 367 mL/min/kg | 27.9 µg/mL (≈ 106 µM) |  |  |
| CNC(=O)c1ccc(CN(C)c2c(F)cc(C#N)cc2F)cc1 | 0.595 | 11.5 mL/min/kg | 238 mL/min/kg | 15.7 µg/mL (≈ 49.9 µM) |  |  |
| Cc1cn2cc(C(=O)N(C)CCO)cc(N[C@@H]3CCOc4cccc(C)c43)c2n1 | 73.4 | 83.6 mL/min/kg | 288 mL/min/kg |  |  |  |
| Cc1ccc([C@@H]2N[C@@H](Cc3ccccc3)C(=O)N2C)o1 | 0.764 | ≤ 4.74 mL/min/kg | 151 mL/min/kg | 53.3 µg/mL (≈ 197 µM) |  |  |
| O=c1[nH]c(=O)n([C@H]2C[C@H](O)[C@@H](CO)O2)cc1C(F)(F)F |  | 41.9 mL/min/kg | ≤ 10.7 mL/min/kg |  |  |  |
| Cc1cc(N2CCN(CC3CCN(C(=O)CC(C)C)CC3)CC2)n[nH]1 | 9.48 | 7.34 mL/min/kg | ≤ 10.7 mL/min/kg |  |  |  |
| Cc1ccc(-c2ccc(-c3nccn3CCCn3cnnc3)o2)cc1 | 123 | 15.7 mL/min/kg | 541 mL/min/kg | 36.8 µg/mL (≈ 110 µM) |  |  |
| COc1nccnc1N1CCC(C(=O)Nc2cccc(F)c2)CC1 | 0.629 | 182 mL/min/kg | 298 mL/min/kg |  |  |  |
| Cc1cc(C)n(-c2cc(Nc3ccccc3C)ncn2)n1 | 0.489 | 59.7 mL/min/kg | 286 mL/min/kg | 1.74 µg/mL (≈ 6.23 µM) |  |  |
| CN(Cc1ccccc1)C(=O)c1ccc(-n2cccn2)nc1 | 0.566 | ≤ 4.74 mL/min/kg | 4990 mL/min/kg | 38.8 µg/mL (≈ 133 µM) |  |  |
| N#Cc1nc(-c2ccccc2)oc1NCc1ccccc1 |  | 197 mL/min/kg | 2470 mL/min/kg |  |  |  |

| Compound | MDR1-MDCK efflux ratio | intrinsic clearance, human liver microsomes | intrinsic clearance, rat liver microsomes | aqueous solubility | fraction unbound, human plasma | fraction unbound, rat plasma |
| --- | --- | --- | --- | --- | --- | --- |
| CCc1ccccc1NC(=O)c1cc(C)nc2onc(C)c12 | 0.67 | 51.8 mL/min/kg | 53.1 mL/min/kg | 13.3 µg/mL (≈ 45 µM) |  |  |
| CCCc1cnc(C)nc1N(C)CCC(C)(C)O |  | 8.14 mL/min/kg | 155 mL/min/kg |  |  |  |
| O=c1c2oc3ccccc3c2ncn1Cc1ccc(F)c(F)c1 | 0.537 | 81.2 mL/min/kg | 788 mL/min/kg |  |  |  |
| Cc1nnc(-c2ccccc2-c2c[nH]nc2C)s1 |  |  |  | 30.9 µg/mL (≈ 121 µM) |  |  |
| Clc1cccc(CNc2nc(C3CC3)no2)c1 | 0.476 | 22 mL/min/kg | 165 mL/min/kg | 29.3 µg/mL (≈ 117 µM) |  |  |
| N#Cc1cccc(CN2CCC=C(CNC(=O)c3cccs3)C2)c1 | 2.25 | 56.7 mL/min/kg | 442 mL/min/kg | 52.2 µg/mL (≈ 155 µM) |  |  |
| COc1ccc(Cc2cccc(C3CCN(C(=O)C4CCCC4)CC3)n2)cc1 | 0.66 | 114 mL/min/kg | 883 mL/min/kg | 25.8 µg/mL (≈ 68.2 µM) |  |  |
| COC(=O)c1ccc2c(c1)CCN2S(=O)(=O)c1ccc(Cl)c(C(F)(F)F)c1 |  |  |  | 0.9 µg/mL (≈ 2.14 µM) |  |  |
| C[C@@H]1c2nnn(-c3ncc(F)cn3)c2CCN1C(=O)c1cccc(C(F)(F)F)c1Cl | 3.42 | ≤ 4.74 mL/min/kg | ≤ 10.7 mL/min/kg | 35.4 µg/mL (≈ 80.2 µM) | 0.0931 | 0.174 |
| Cc1ccc(NC(=O)c2c([O-])n(-c3ccc(C)cc3)n[n+]2Cc2ccccc2)cc1 | 1.02 |  |  | 0.21 µg/mL (≈ 0.527 µM) |  |  |
| COc1ccccc1-c1nc(-c2ccc(NC(C)=O)cc2)c(C)s1 |  |  |  | 0.73 µg/mL (≈ 2.16 µM) |  |  |
| Cn1cc(CCNC(=O)N2CCCc3c(F)cccc32)cn1 | 1.71 | 25.2 mL/min/kg | 230 mL/min/kg | 42.5 µg/mL (≈ 141 µM) |  |  |
| Cc1ccc(CC(=O)Nc2nc(C)no2)cn1 | 2 | ≤ 4.74 mL/min/kg | ≤ 10.7 mL/min/kg | 42.8 µg/mL (≈ 184 µM) |  |  |
| COc1cccc(S(=O)(=O)N2CCOC(c3c(C(N)=O)sc4ncccc34)C2)c1 (stereo unspecified) | 38.2 |  |  |  |  |  |
| NCCOc1cccc(CC(=O)N2CCCN(C(=O)C3CCC3)CC2)c1 | 5.51 | ≤ 4.74 mL/min/kg | ≤ 10.7 mL/min/kg |  |  |  |
| O=C(c1ccc(O)cc1)N1CCN(c2ncnc3c2CCC3)CC1 | 43.2 | 12.1 mL/min/kg | 178 mL/min/kg |  |  |  |
| COCCOCc1ccc(-c2cc3onc(-c4ccccc4)c3c(=O)n2C)cc1 | 0.466 | 13.7 mL/min/kg | 135 mL/min/kg | 14.2 µg/mL (≈ 36.5 µM) |  |  |
| Cc1nnc(-c2ccccc2-c2ccc(O)cc2)s1 | 1.3 | 14.6 mL/min/kg | 397 mL/min/kg | 50.1 µg/mL (≈ 187 µM) |  |  |
| Cc1noc(NCc2c(C)nn(C)c2C)n1 | 1.34 | ≤ 4.74 mL/min/kg | ≤ 10.7 mL/min/kg |  |  |  |
| Cc1nc(CCN2C(=O)NC(C)(C)C2=O)cs1 | 4.61 | ≤ 4.74 mL/min/kg | 21.7 mL/min/kg | 31.9 µg/mL (≈ 126 µM) |  |  |
